Values joined by “and” are separate entries in the source; they are usually repeats but may differ in a detail not shown here. Equal entries are not always repeated. Where two headings read alike, the source gives them in different places.
Columns and labels:
[1] = Plasma biochemistry after 17 days of treatment in WD fed rats (glycemia, insulin, HOMA-IR, adiponectin, FFA, TG); type: in vivo, rat
[2] = test system: Tibialis-anterior muscle fibers; assay: Histochemical staining for succinate dehydrogenase (SDH) of tibialis-anterior muscle, quantification of oxidative fibers; type: in vivo, rat; conditions: for Biopsis #1 Non-oxydative fibers (pixels) / Biopsis #1 oxydative fibers (% from total pixels) / Biopsis #1 oxydative fibers (pixels) / Biopsis #2 Non-oxydative fibers (pixels) / Biopsis #2 oxydative fibers (% from total pixels) / Biopsis #2 oxydative fibers (pixels): rat tibialis-anterior, individual animals
Procedure: The muscle fibers on a set of animals that were treated with the compound 1.1 at the doses of 3 or 10 mg/kg once a day for 3 weeks are analyzed. Tibialis-anterior from 3 animals per group were used for both morpho-histology analysis and molecular analysis of specific markers of mitochondrial activities. The histology analysis was preformed on cryosection followed by a histochemical staining for succinate dehydrogenase (SDH) (Luquet S. et al., FASEB J, 2003. 17(15): p. 2299-301). Two biopsies of each muscle samples were generated and analyzed.
The quantification was performed by using Adobe Photoshop software (Lehr et al. Histochem Cytochem, 1997. 45(11): p. 1559-65, J Histochem Cytochem, 1999. 47(1): p. 119-26), and was based on pictures (in TIFF format) obtained from different slides of muscle (Tibialis-Anterior).
For each picture identical areas of about 57000 pixels at similar magnification were selected and the surface occupied by the stained fibers was measured (FIG. 1). The results are expressed as the percentage of the area of highly-stained and moderately-stain fibers from the total area selected. The analysis is performed in a blinded fashion.
Statistical analysis (Prism-Graphpad) was performed using unpaired T-test with: * corresponding to p<0.05 and ** to p<0.01.

[3] = Body weight follow-up during treatment in rats fed a high fat/medium fructose diet (WD); type: in vivo, rat; conditions: oral once daily
Excerpt: The first set of rats was undergoing an OGTT after 3 weeks of treatment (half rats/group of the clamp arm) and the second set was also undergoing an OGTT after 3 weeks of treatment (half rats/group of clamp arm) and the Histology study (3 rats/group). […] Homogenous mild obese and insulin resistant rats were allocated into the different treatment groups and western diet was continued until the end of the experiment. Given that, the 2 series started with a gap of one week Dosage regimen: Rats were treated once daily via the oral route, in the morning. The duration of the treatment was between 5 and 5.5 weeks. […], 10 mg/Kg (n=12) […] The second set of rats was weighted at 8:30 on days 17 and 21, at 1:45 pm on day 24 and at 11:10 am on day 28.

mouse PPARδ = biological target: T1, mouse PPARδ (Mus musculus, UniProt P35396); assay: GAL4-PPAR chimera transactivation assay in CV-1 cells at 10% or 0.1% serum (Example 4); type: cell-based; conditions: read-out: GAL4-chimera (mouse) EC50 (μM) hPPARδ
T1 construct: amino acids 139-440 for m; expressed in transfected cells; host or cells: CV-1
T1 sequence (P35396 139-440): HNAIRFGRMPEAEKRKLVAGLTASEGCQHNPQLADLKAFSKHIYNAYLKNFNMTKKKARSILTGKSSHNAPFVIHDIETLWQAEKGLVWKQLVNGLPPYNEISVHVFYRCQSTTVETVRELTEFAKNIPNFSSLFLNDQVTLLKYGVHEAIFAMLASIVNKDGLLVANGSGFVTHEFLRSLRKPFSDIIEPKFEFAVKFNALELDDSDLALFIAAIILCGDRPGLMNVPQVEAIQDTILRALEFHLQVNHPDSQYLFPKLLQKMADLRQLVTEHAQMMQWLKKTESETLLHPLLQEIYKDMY

mouse PPARγ = biological target: T2, mouse PPARγ (Mus musculus, UniProt P37238); assay: as above; type: cell-based; conditions: read-out: GAL4-chimera (mouse) EC50 (μM) hPPARγ
T2 construct: amino acids 204-505 for m and mm from PPARγ; expressed in transfected cells; host or cells: CV-1
T2 sequence (P37238 204-505): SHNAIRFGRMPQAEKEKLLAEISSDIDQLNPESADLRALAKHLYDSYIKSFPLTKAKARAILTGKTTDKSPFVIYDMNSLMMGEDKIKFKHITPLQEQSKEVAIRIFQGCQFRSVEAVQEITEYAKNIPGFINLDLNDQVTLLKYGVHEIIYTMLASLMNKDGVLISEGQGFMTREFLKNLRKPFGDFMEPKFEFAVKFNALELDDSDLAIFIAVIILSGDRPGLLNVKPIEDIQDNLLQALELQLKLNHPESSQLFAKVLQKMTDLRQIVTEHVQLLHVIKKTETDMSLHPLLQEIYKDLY

mouse PPARα = biological target: T3, mouse PPARα (Mus musculus, UniProt P23204); assay: as above; type: cell-based; conditions: read-out: GAL4-chimera (mouse) EC50 (μM) hPPARα
T3 construct: amino acids 167-468 for hs and m; expressed in transfected cells; host or cells: CV-1
T3 sequence (P23204 167-468): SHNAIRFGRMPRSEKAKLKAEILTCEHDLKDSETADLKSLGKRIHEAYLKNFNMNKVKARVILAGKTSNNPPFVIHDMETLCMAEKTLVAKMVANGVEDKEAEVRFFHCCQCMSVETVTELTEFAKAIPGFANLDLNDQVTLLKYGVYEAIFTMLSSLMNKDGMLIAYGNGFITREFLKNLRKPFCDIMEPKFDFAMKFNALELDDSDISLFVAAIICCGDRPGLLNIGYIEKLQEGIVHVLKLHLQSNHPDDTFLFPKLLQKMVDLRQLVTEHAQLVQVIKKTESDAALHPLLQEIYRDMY

rat PPARγ = biological target: T4, rat PPARγ (Rattus norvegicus, UniProt O88275); assay: as above; type: cell-based; conditions: read-out: GAL4-chimera (rat) EC50 (μM) hPPARγ
T4 construct: expressed in transfected cells; host or cells: CV-1
T4 sequence (O88275 238-503 limits assumed): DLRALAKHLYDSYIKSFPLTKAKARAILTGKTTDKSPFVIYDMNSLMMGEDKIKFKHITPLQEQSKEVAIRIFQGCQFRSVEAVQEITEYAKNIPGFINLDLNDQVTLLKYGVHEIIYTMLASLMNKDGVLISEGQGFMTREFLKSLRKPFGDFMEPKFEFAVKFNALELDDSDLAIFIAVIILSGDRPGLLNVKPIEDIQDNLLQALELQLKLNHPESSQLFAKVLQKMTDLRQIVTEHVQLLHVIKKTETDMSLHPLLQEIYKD

[4] = 3 mg/kg once a day for 3 weeks, listed as COMP.I.1, 3 mg/kg
[5] = 10 mg/kg once a day for 3 weeks
[6] = 10 mg/kg once a day for 3 weeks, listed as COMP.I.1, 10 mg/kg

- EC50 (mouse PPARδ; 0.1% serum): 0.065 ± 0.001 µM
- EC50 (mouse PPARδ; 10% serum): 0.327 ± 0.07 µM
- EC50 (mouse PPARγ; 0.1% serum): > 10 µM
- EC50 (mouse PPARγ; 10% serum): > 10 µM
- EC50 (mouse PPARα; 0.1% serum): > 10 µM
- EC50 (mouse PPARα; 10% serum): > 10 µM
- EC50 (rat PPARγ; 0.1% serum): > 10 µM
- EC50 (rat PPARγ; 10% serum): > 10 µM
SMILES: Cc1cc(C(=O)CCc2sc(-c3ccc(C(F)(F)F)cc3)nc2C(C)C)ccc1OCC(=O)O [compound I.1, 4-[3-[4-Isopropyl-2-[4-(trifluoromethyl)phenyl]-5-thiazolyl]propionyl]-2-methylphenoxyacetic acid]
- Decrease of HOMA-IR ([1]; 4 h fasted, pioglitazone 10, metformin 50, GW501516 10, compound I.1 10 mg/kg): ~25% and 28%
- Plasma adiponectin levels ([1]; pioglitazone 10, metformin 50, GW501516 10, compound I.1 3 and 10 mg/kg): did not prevent a decrease
- Increase of the number of oxidative fiber in tibialis muscle ([2]; WD fed rats, SDH histology, dose not specified): about 50%
- Biopsis #1 Non-oxydative fibers (pixels) [2, 4]: 15343 pixels and 16157 pixels and 27185 pixels
- Biopsis #1 oxydative fibers (% from total pixels) [2, 4]: 73.56 % from total pixels and 72.16 % from total pixels and 51.41 % from total pixels
- Biopsis #1 oxydative fibers (pixels) [2, 4]: 42685 pixels and 41871 pixels and 28767 pixels
- Biopsis #2 Non-oxydative fibers (pixels) [2, 4]: 16208 pixels and 1109 pixels and 16402 pixels
- Biopsis #2 oxydative fibers (% from total pixels) [2, 4]: 72.07 % from total pixels and 81.01 % from total pixels and 69.92 % from total pixels
- Biopsis #2 oxydative fibers (pixels) [2, 4]: 41820 pixels and 47009 pixels and 38128 pixels
- Biopsis #2 Non-oxydative fibers (pixels) [2, 5]: 9243 pixels
- Biopsis #2 oxydative fibers (% from total pixels) [2, 5]: 83.06 % from total pixels
- Biopsis #2 oxydative fibers (pixels) [2, 5]: 45326 pixels
- Biopsis #1 Non-oxydative fibers (pixels) [2, 6]: 18992 pixels and 27170 pixels and 16958 pixels
- Biopsis #1 oxydative fibers (% from total pixels) [2, 6]: 68.84 % from total pixels and 52.66 % from total pixels and 70.78 % from total pixels
- Biopsis #1 oxydative fibers (pixels) [2, 6]: 35030 pixels and 30218 pixels and 41070 pixels
- Body weight / body weight gain during treatment ([3]; compound I.1 3 mg/kg (alone or +metformin 50 mg/kg)): did not affect body weight gain
- Body weight / body weight gain during treatment ([3]; pioglitazone 10, metformin 50, GW501516 10, compound I.1 10 mg/kg (alone or +metformin 50 mg/kg)): decreased thereafter body weight gain, until a significant effect after 4 weeks of treatment

From patent US20110092517A1, “Use of PPAR Delta Ligands for the Treatment or Prevention of Inflammation or Energy Metabolism/Production Related Diseases” (Cerenis Therapeutics S.A. & Nippon Chemiphar Co., Ltd., priority 2009, published 2011)
